What was measured:
LXYL-P1 (or P1) protein = test: Specificity test on different glycoside (chromogenic) substrates hydrolysis by purified LXYL-P1; type: biochemical, Lentinula edodes M95.33; details: 20 min; for Relative activity (% control): control = PNP-Xyl; for Relative activity (% control) / OD405 value: 5 mM substrate, pH 5.0, 50° C., purified P1; for OD405 value: release of p-nitrophenol at 405 nm; for hydrolysis of chromogenic substrate by P1 protein (in words): 50° C., pH 5.0
Procedure: In addition to the β-xylosidase activity, especially the activity of hydrolyzing 7-xylosyltaxanes, the specificity of the LXYL-P1 (or P1) on other glycoside substrates was also tested by employing four chromogenic substrates: p-nitrophenyl-β-D-glucopyranoside (PNP-Glc), p-nitrophenyl-β-D-galactopyranoside (PNP-Gal), p-nitrophenyl-α-L-arabinopyrano side (PNP-Ara), and p-Nitrophenyl-β-D-xylopyranoside (PNP-Xyl, serving as a control). Each of the chromogenic substrates was prepared in 50 mM acetate buffer to obtain 5 mM solution (pH 5.0).
To the purified P1 protein diluent (25 μl) obtained in example 1, 100 μl of each chromogenic substrate was added. The reaction was performed at 50° C. for 20 min and stopped with 2 ml saturated solution of sodium borate. Release of p-nitrophenol (absorbance value) was measured at 405 nm.

[1] = test system: recombinant strain GS115-9K-P1-2; test: β-xylosidase activity of the recombinant yeast strain on PNP-Xyl; type: cell-based, Pichia pastoris
Procedure: FIG. 4: Comparison of the recombinant strains GS115-9K-P1-2 and GS115-9K (control) on β-xylosidase activity.
BMGY medium (contains per liter: 10.00 g yeast extract, 20.00 g peptone, 100 mM potassium phosphate buffer, pH 6.0, 10 ml glycerol) and BMMY medium (10 ml glycerol in BMGY medium was replaced with 10 ml methanol as the carbon source) were used as the seed culture and fermentation media respectively for the recombinant yeast. The resistant strain obtained by screening was inoculated into 10 ml seed culture medium and incubated at 30° C., 220 rpm for 18 h. The cultures were washed 2 times by centrifugation and the cell pellet was transferred into 50 ml fermentation medium. Cells were cultured at 30° C., 220 rpm, and 1% methanol was added every 24 h for induction of expression of the recombinant protein. Meanwhile the enzyme activity of the recombinant strain was detected regularly. […]

[2] = test system: recombinant yeast GS115-3.5K-P1-2; test: Hydrolysis of XDB by the recombinant yeast; type: cell-based, Pichia pastoris; details: 8 mg XDB/ml, 16 mg dry cells/ml, 24 h, 30-55° C., HPLC
Procedure: The strain was the same as that in Example 6 and the substrate was 7-xylosyl-10-deacetylbaccatin III (XDB). 1.5 ml cell reaction solution contained 16 mg dry cells per milliliter and 8 mg XDB per milliliter. The mixture was incubated in a water shaking bath for 24 h at 30˜55° C.

[3] = test system: recombinant yeast GS115-3.5K-P1-2; test: Hydrolysis of 7-xylosyltaxane mixtures by the recombinant yeast; type: cell-based, Pichia pastoris; details: 7-xylosyltaxane mixtures about 8 mg/ml, 24 h, 30-55° C., HPLC
From the text: The recombinant yeast GS115-3.5K-P1-2 (transformant of the recombinant expression plasmid pPIC3.5K-P1-2) obtained in Example 4 was applied in the following bioconversion reaction, wherein the substrates to be converted were 7-xylosyltaxane mixtures, the main components of which included 62.12% of 7-xylosyl-10-deacetyltaxol, 12.75% of 7-xylosyl-10-deacetylcephalomannine, 17.04% of 7-xylosyl-10-deacetyltaxol C, and 8.09% of other components.
The method for culturing the recombinant strain was the same as in Example 5. 16 ml 7-xylosyltaxane mixtures (at a concentration of 100 mg/ml) were added to 200 ml recombinant strain reaction solution with the final concentration of the 7-xylosyltaxane mixtures being about 8 mg/ml (supersaturated). The recombinant yeast introduced with the null vector was taken as the negative control. The solution was mixed by magnetic stirring for 24 h at 30˜55° C. […] The yields of the three main products: 10-deacetyltaxol (DT): 3.27 mg/ml; 10-deacetylcephalomannine (DC): 0.74 mg/ml; and 10-deacetyltaxol C (DTC): 0.92 mg/ml.

[4] = test system: Moraxella sp. (ATCC55475); details: XDT 0.25 mg/ml, wet cells 91.5 mg/ml, 21 h, 28° C.; cited from earlier work
[5] = test system: Leifsonia shinshuensis DICP 16; details: 1 mg XDT in 2 ml cell suspension, 21 h, 30° C.; cited from earlier work
[6] = test system: recombinant yeast GS115-9K-P1-2; test: Hydrolysis of 7-xylosyl-10-deacetyltaxol (XDT) by the recombinant yeast; type: cell-based, Pichia pastoris; details: XDT 0.625 mg/ml, 12 h, 30-55° C.
Procedure: The recombinant yeast GS115-9K-P1-2 (transformant of the recombinant expression plasmid pPIC-9K-P1-2) obtained in example 4 was cultured and induced for 5 days in the manner of Example 4. Cells were centrifuged, harvested and washed, and then was, directly or after lyophilization, suspended with 50 mM acetate buffer or phosphate buffer (65 mg wet cells/ml or 16 mg dry cells/ml, pH 3.5˜7.5), and used as the hydrolytic reaction solution. To 20 ml of the cell reaction solution, 0.5 ml solution of 7-xylosyl-10-deacetyltaxol (XDT) was added with the final concentration of XDT being 0.625 mg/ml. The resultant was incubated in a water shaking bath for 12 h at 30˜55° C.
Extraction was performed with ethyl acetate after the reaction was completed.

LXYL-P2 (or P2) = test: XDT conversion by Phenyl Sepharose peak LXYL-P2, thin layer chromatography; type: biochemical, Lentinula edodes M95.33; details: TLC, FIG. 1B
From the text: (§1) FIG. 1: Phenyl Sepharose hydrophobic column chromatography of the β-xylosidase-β-glucosidase from the protein extract of the fungus M95.33 (A), and thin layer chromatography (TLC) of XDT conversion (B). • A: P1. active elution peak of LXYL-P1; P2. active elution peak of LXYL-P2. […] XDT (control); 2. DT (control); 3. XDT bioconversion by LXYL-P1; 4. XDT bioconversion by LXYL-P2.
(§2) The fraction eluted in the above step was applied to a Phenyl Sepharose hydrophobic column (1.6 cm×20 cm) equilibrated with 50 mM Tris-HCl buffer (pH 8.0) containing 1 M […]. Elution was performed with Tris-HCl buffer (50 mM, pH8.0) having a linear gradient of 1.0˜0 M (NH4)2SO4 (at a flow rate of 2 ml/min). Fractions having enzymatic activity were collected and dialyzed with Tris-HCl buffer (50 mM, pH8.0).
(§3) Within penal B, 1 was XDT control; 2 was DT control; 3 was XDT conversion by P1; and 4 was XDT conversion by P2.

LXYL-P1 (or P1) = test: XDT conversion by Phenyl Sepharose peak LXYL-P1, thin layer chromatography; type: biochemical, Lentinula edodes M95.33; details: TLC, FIG. 1B
From the text: as §1, §2, §3

O=[N+]([O-])c1ccc(O[C@@H]2OC[C@H](O)[C@H](O)[C@H]2O)cc1 [PNP-Ara, p-nitrophenyl-α-L-arabinopyranoside]
Relative activity (% control) (LXYL-P1 (or P1) protein): 0 % control
OD405 value (LXYL-P1 (or P1) protein): 0.000

O=[N+]([O-])c1ccc(O[C@@H]2O[C@H](CO)[C@H](O)[C@H](O)[C@H]2O)cc1 [PNP-Gal, p-nitrophenyl-β-D-galactopyranoside]
Relative activity (% control) (LXYL-P1 (or P1) protein): 0 % control
OD405 value (LXYL-P1 (or P1) protein): 0.000

O=[N+]([O-])c1ccc(O[C@@H]2O[C@H](CO)[C@@H](O)[C@H](O)[C@H]2O)cc1 [PNP-Glc, p-nitrophenyl-β-D-glucopyranoside]
hydrolysis of chromogenic substrate by P1 protein (in words) (LXYL-P1 (or P1) protein): could hydrolyze
Relative activity (% control) (LXYL-P1 (or P1) protein): 217 % control
OD405 value (LXYL-P1 (or P1) protein): 1.615

O=[N+]([O-])c1ccc(O[C@@H]2OC[C@@H](O)[C@H](O)[C@H]2O)cc1 [PNP-Xyl, p-nitrophenyl-β-D-xylopyranoside]
hydrolysis of chromogenic substrate by P1 protein (in words) (LXYL-P1 (or P1) protein): could hydrolyze
Relative activity (% control) (LXYL-P1 (or P1) protein): 100 % control
OD405 value (LXYL-P1 (or P1) protein): 0.745
ability of recombinant strain to hydrolyze the substrate ([1]; cell suspension, 5 mM PNP-Xyl, 20 min, 30-55° C.): has the ability to hydrolyze
enzymatic activity in supernatant of fermentation broth of recombinant strain ([1]; supernatant of the fermentation broth): no obvious enzymatic activity was detected

CC(=O)O[C@@]12CO[C@@H]1C[C@H](O[C@@H]1OC[C@@H](O)[C@H](O)[C@H]1O)[C@@]1(C)C(=O)[C@H](O)C3=C(C)[C@@H](O)C[C@@](O)([C@@H](OC(=O)c4ccccc4)[C@H]21)C3(C)C [XDB, 7-Xylosyl-10-deacetylbaccatin III]
conversion ratio [2]: 86.54%

CC=C(C)C(=O)NC(c1ccccc1)C(O)C(=O)OC1CC2(O)C(OC(=O)c3ccccc3)C3C4(OC(C)=O)COC4CC(OC4OCC(O)C(O)C4O)C3(C)C(=O)C(O)C(=C1C)C2(C)C (stereo not shown) [XDC, 7-Xylosyl-10-deacetylcephalomannine]
conversion ratio [3]: 93.60%

CC(=O)O[C@@]12CO[C@@H]1C[C@H](O[C@@H]1OC[C@@H](O)[C@H](O)[C@H]1O)[C@@]1(C)C(=O)[C@H](O)C3=C(C)[C@@H](OC(=O)[C@H](O)[C@@H](NC(=O)c4ccccc4)c4ccccc4)C[C@@](O)([C@@H](OC(=O)c4ccccc4)[C@H]21)C3(C)C [XDT, 7-Xylosyl-10-deacetyltaxol]
XDT remaining after reaction (HPLC) [4]: No XDT was found to be remaining
conversion ratio [3]: 92.45%
XDT remaining after reaction (HPLC) [5]: No XDT was found to be remaining
conversion ratio ([6]; HPLC): 98.80%
substrate transformation by TLC ([6]; TLC): completely transformed
hydrolysis of XDT into DT by P2 (LXYL-P2 (or P2)): could hydrolyze
hydrolysis of XDT into DT by P1 (LXYL-P1 (or P1)): could hydrolyze

CCCCCC(=O)N[C@@H](c1ccccc1)[C@@H](O)C(=O)O[C@H]1C[C@@]2(O)[C@@H](OC(=O)c3ccccc3)[C@@H]3[C@]4(OC(C)=O)CO[C@@H]4C[C@H](O[C@@H]4OC[C@@H](O)[C@H](O)[C@H]4O)[C@@]3(C)C(=O)[C@H](O)C(=C1C)C2(C)C [XDTC, 7-Xylosyl-10-deacetyltaxol C]
conversion ratio [3]: 92.00%

— patent US9206405B2, “Glycosyl hydrolase with beta-xylosidase and beta-glucosidase activities and uses thereof” (Institute of Materia Medica, Chinese Academy of Medical …, priority 2010, dated 2015)
